# Experimental data reported in article PMC10214526, “Semisynthetic LC3 Probes for Autophagy Pathways Reveal a Noncanonical LC3 Interacting Region Motif Crucial for the Enzymatic Activity of Human ATG3” (ACS Central Science, 2023).
# What was measured:
# [1] = target: T1, ATG3 C1–GABARAP (probe 2) complex formation (Homo sapiens, UniProt O95166); test: Competition assay: LIR^ATG3 peptides vs cross-linking of GABARAP methyl fumarate probe 2 with ATG3 C1; assay type: biochemical; conditions: probe 2 (15 μM) with ATG3 C1 in the presence of increasing amounts of peptide
# T1 construct: SUMO2 (N, cleaved yes); Mxe GyrA intein-His6 (C, cleaved yes); made in house; host or cells: E. coli Rosetta-CodonPlus (DE3)-RIL
# Method: To exclude an effect of LIR deletion on protein activity we performed a competition experiment with chemically prepared LIR (L94-H112) peptide 5. Probe 2 (15 μM) was incubated with ATG3 C1 in the presence of increasing amounts of 5. […] We also postulated that cyclization of the LIR peptide would recapitulate its β-sheet conformation and lead to tighter binding than the linear peptide due to preorganization.[37] […] Cyclic peptide 6 was prepared by solid-phase peptide synthesis followed by cyclization using selective cysteine alkylation (Figure S11).[39],[40] […] Additionally, we confirmed the interaction of LIR^ATG3 peptides with GABARAP and LC3A by fluorescence polarization (Figure 2e–g). LIR^ATG3-derived peptides bind to both LC3A and GABARAP. As indicated by the competition experiments, cyclic peptides bound markedly tighter to GABARAP and LC3A than the linear peptides. […]
# Figure 2 Characterization of LIR^ATG3. a. […] Quantification of competition assays shown in b and c. The amount of GABARAP–ATG3 C1 complex was quantified by gel-densitometry and normalized to the reaction without peptide for each gel. […] Fluorescence polarization binding-data of fluorescein-modified LIR^ATG3 peptide binding to GABARAP. […] Fluorescence polarization data of fluorescein-modified LIR^ATG3 peptide binding to LC3A. […]
# Farnung et al. Supplementary Information and monitored using LC-MS analysis. […]
# [2] = Circular dichroism spectroscopy of LIR^ATG3 peptides; assay type: physicochemical; conditions: 700 μM peptide, 20 mM potassium phosphate pH 7.2, 20 °C, 180-300 nm, 5x averaged
# Text: Farnung et al. Supplementary Information […]
# H Capping with O H Resin cleavage O H Cyclization O […]
# acid anhydride deprotection
# Figure S11. Preparation of cyclized LIRATG3 peptide 6. a, Synthetic scheme describing the preparation of 6.
# A cysteine residue is introduced at the C-terminus of the LIR motif. Following standard Fmoc-SPPS the LIR peptide is capped at its N-terminus with α-chloroacetic acid anhydride. Following resin cleavage, the peptide is cyclized by cysteine alkylation. b, Analytical RP-HPLC chromatograms showing the cyclization of the LIR […]
# peptide to provide 6. […] Middle chromatogram
# Figure S12. CD spectra of linear and cyclic LIR ATG3 peptides 5 and 6. CD spectra of LIRATG3 peptides 5 and 6 were recorded in 20 mM KPhos buffer (pH 7.2) at a concentration of 700 μM. Cyclized LIRATG3 peptide 6 […]
# nm and an increase in band intensity at 215 nm.
# Plasmid Supplier Identiﬁer Dilution
# Anti-ATG5 Cell-Signalling #D5F5U 1:1,000
# Anti-β-Actin Thermo-Fisher #BA3R 1:2,000
# Table S2 Antibodies used in this study.
# 2.9. Circular dichroism spectroscopy
# CD spectra were recorded on a JASCO J-1500 CD spectrometer in a 0.1 cm cuvette. Samples were measured in potassium phosphate (20 mM, pH 7.2) at 20 °C. Data were recorded between 180-300 nm with a measuring speed of 20 nm/min. Measurements were repeated (5x) and averaged.
# Background spectrum was recorded and subtracted from measured spectra. […]
# T1 sequence (O95166 1-115 limits assumed, one chain of several): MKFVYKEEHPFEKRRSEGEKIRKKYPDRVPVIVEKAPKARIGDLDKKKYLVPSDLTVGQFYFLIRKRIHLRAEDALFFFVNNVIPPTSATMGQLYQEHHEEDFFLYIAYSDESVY
substance,measurement,setting,value
Ac-LEAIIEEDDGDGGWVDTYHAGGGK-OH [compound 5],Block of ATG3 modification,[1],blocked ATG3 modification in a concentration-dependent manner
same,Secondary structure by CD,[2],not structured in solution
